One experiment addresses T1, Aurora-2 (Aurora A) (Homo sapiens, UniProt O14965).
T1 sequence (O14965 1-403): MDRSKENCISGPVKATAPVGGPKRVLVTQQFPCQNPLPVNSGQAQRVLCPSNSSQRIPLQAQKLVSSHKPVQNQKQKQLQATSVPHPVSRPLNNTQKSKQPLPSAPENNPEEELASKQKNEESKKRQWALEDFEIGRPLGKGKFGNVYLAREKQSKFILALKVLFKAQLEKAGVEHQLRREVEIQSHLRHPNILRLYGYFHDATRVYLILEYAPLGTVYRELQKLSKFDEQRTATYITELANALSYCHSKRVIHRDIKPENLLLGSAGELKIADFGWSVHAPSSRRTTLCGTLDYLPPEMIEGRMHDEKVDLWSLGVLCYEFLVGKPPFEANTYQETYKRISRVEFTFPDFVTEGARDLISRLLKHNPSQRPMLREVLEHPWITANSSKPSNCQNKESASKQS
Description: Aurora-2 (Aurora A) Inhibition Assay (coupled enzyme assay). It is filed as biochemical. The procedure:
Assays were carried out in a mixture of 100 mM Hepes (pH7.5), 10 mM MgCl2, 1 mM DTT, 25 mM NaCl, 2.5 mM phosphoenolpyruvate, 300 μM NADH, 30 μg/ml pyruvate kinase and 10 μg/ml lactate dehydrogenase. […] Assays were carried out at 30° C. and in the presence of 40 nM Aurora-2.
An assay stock buffer solution was prepared containing all of the reagents listed above, with the exception of Aurora-2 and the test compound of interest. […] The plate was preincubated for 10 minutes at 30° C. and the reaction initiated by addition of 10 μl of Aurora-2. Initial reaction rates were determined with a Molecular Devices SpectraMax Plus plate reader over a 10 minute time course. IC50 and Ki data were calculated from non-linear regression analysis using the Prism software package (GraphPad Prism version 3.0cx for Macintosh, GraphPad Software, San Diego Calif., USA).

A further experiment deals with Aurora-1 (Aurora B) (Homo sapiens, UniProt Q96GD4). Description: Aurora-1 (Aurora B) Inhibition Assay (Radiometric). The experiment is classed as biochemical. The protocol: An assay buffer solution was prepared which consisted of 25 mM HEPES (pH 7.5), 10 mM MgCl2, 0.1% BSA and 10% glycerol. […] To 22 μL of the Aurora-B solution, in a 96-well plate, was added 2 μl of a compound stock solution in DMSO and the mixture allowed to equilibrate for 10 minutes at 25° C. The enzyme reaction was initiated by the addition of 16 μl stock [γ-^33P]-ATP solution (˜20 nCi/μL) prepared in assay buffer, to a final assay concentration of 800 μM. The reaction was stopped after 3 hours by the addition of 16 μL 500 mM phosphoric acid and the levels of ^33P incorporation into the peptide substrate were determined by the following method.
Sequence of Aurora-1 (Aurora B) (Q96GD4 whole entry): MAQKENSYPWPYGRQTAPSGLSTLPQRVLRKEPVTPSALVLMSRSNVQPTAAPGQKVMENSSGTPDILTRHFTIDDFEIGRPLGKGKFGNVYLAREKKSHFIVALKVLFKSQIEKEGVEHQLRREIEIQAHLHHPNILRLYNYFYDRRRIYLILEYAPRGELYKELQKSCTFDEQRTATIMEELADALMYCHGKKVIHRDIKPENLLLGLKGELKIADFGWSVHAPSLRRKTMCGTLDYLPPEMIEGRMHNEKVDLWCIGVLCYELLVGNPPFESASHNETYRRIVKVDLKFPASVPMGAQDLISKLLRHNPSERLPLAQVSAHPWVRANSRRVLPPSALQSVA
A phosphocellulose 96-well plate (Millipore, Cat no. MAPHNOB50) was pre-treated with 100 μL of a 100 mM phosphoric acid prior to the addition of the enzyme reaction mixture (40 μL). The solution was left to soak on to the phosphocellulose membrane for 30 minutes and the plate subsequently washed four times with 200 μL of a 100 mM phosphoric acid. […] Levels of non-enzyme catalyzed background radioactivity were determined by adding 16 μL of the 500 mM phosphoric acid to control wells, containing all assay components (which acts to denature the enzyme), prior to the addition of the [γ-^33P]-ATP solution. Levels of enzyme catalyzed ^33P incorporation were calculated by subtracting mean background counts from those measured at each inhibitor concentration. […] Ki values were calculated from initial rate data by non-linear regression using the Prism software package (Prism 3.0, Graphpad Software, San Diego, Calif.).

The test system of the next experiment is tumor. The experiment in a line: Animal model of tumor growth inhibition, once a week dosing. It is filed as in vivo. From the text: Applicants have discovered that for compounds that display a […] binding mechanism with slow, tight-binding kinetics, the Ki* value is a much better predictive tool for cell potency than is Ki. In some embodiments, such compounds have a strong pharmacodynamic profile, resulting in long term cell activity that would allow for shorter dosing regimens in vivo. A typical dosing regimen for Aurora inhibitors in animal models is, e.g., at least once a day dosing. In one embodiment, applicants' invention allows for selecting compounds that may be dosed less than once a day.

Like-named read-outs stand apart in the source and are kept apart here.

In general, Ki refers to a measure of affinity in units of concentration, obtained from inhibition or displacement.

As to `C#CC(C)(C)N1CCN(c2cc(Nc3cc(C)n[nH]3)nc(Sc3ccc(NC(=O)CC)cc3)n2)CC1` [Compound 6], the Ki at Aurora-2 (Aurora A) (read-out: Aurora A Ki) came to 1.82 nM; on Aurora-1 (Aurora B), 14 nM.

Consider `CCC(=O)Nc1ccc(Sc2nc(Nc3cc(C)n[nH]3)cc(N3CCC4(CCN(C)C4)CC3)n2)cc1` [Compound 17], for which the Ki at Aurora-2 (Aurora A) (read-out: Aurora A Ki) was found to be 2.05 nM; on Aurora-1 (Aurora B) it was 59.7 nM.

Turning to `CCC(=O)Nc1ccc(Sc2nc(Nc3cc(C)n[nH]3)cc(N3CC(O)(C(C)(C)C)C3)n2)cc1` [Compound 20], the figures for the Ki on Aurora-2 (Aurora A) (read-out: Aurora A Ki) and at Aurora-1 (Aurora B) were 0.35 nM and 4.5 nM, respectively.

`CCC(=O)Nc1ccc(Sc2nc(Nc3cc(C)n[nH]3)cc(N3CCC(C#N)(c4ccccc4OC)CC3)n2)cc1` [Compound 25]: the Ki at Aurora-2 (Aurora A) (read-out: Aurora A Ki) was determined as 0.895 nM; at Aurora-1 (Aurora B), 230 nM.

As for `Cc1cc(Nc2cc(N3CCC(F)C3)nc(Sc3ccc(NC(=O)CC(F)(F)F)cc3)n2)[nH]n1` (stereo not drawn) [Compound 32], the Ki on Aurora-2 (Aurora A) (read-out: Aurora A Ki) came to 0.35 nM; at Aurora-1 (Aurora B) it was 4 nM.

For the compound `Cc1cc(Nc2cc(N3CCN(C(C)(C)C)CC3)nc(Sc3ccc(NC(=O)C4CC4)cc3)n2)[nH]n1` [Compound 3], the figures for the Ki at Aurora-2 (Aurora A) (read-out: Aurora A Ki) and at Aurora-1 (Aurora B) were 2.12 nM and 22.3 nM, respectively.

Turning to `Cc1cc(Nc2cc(N3CC(O)(C4CC4)C3)nc(Sc3ccc4ccccc4c3)n2)n[nH]1` [Compound 34], the Ki on Aurora-2 (Aurora A) (read-out: Aurora A Ki) turned out to be 0.63 nM; on Aurora-1 (Aurora B), 51 nM.

`CCC(=O)Nc1ccc(Sc2nc(Nc3cc(C)n[nH]3)cc(N3CC4CN(C(C)C)CC4C3)n2)cc1` (stereo not drawn) [Compound 19]: the Ki came out at 5.4 nM on Aurora-2 (Aurora A) (read-out: Aurora A Ki) and 34.5 nM at Aurora-1 (Aurora B).

In the case of `CCC(=O)Nc1ccc(Sc2nc(Nc3cc(C)n[nH]3)cc(N3CC(O)(C4CC4)C3)n2)cc1` [Compound 21], the Ki on Aurora-2 (Aurora A) (read-out: Aurora A Ki) turned out to be 0.387 nM.

Regarding `Cc1cc(Nc2cc(N3CCN(C(C)(C)C)CC3)nc(Sc3ccc(NC(=O)C4CCCC4)cc3)n2)[nH]n1` [Compound 5], the values for the Ki at Aurora-2 (Aurora A) (read-out: Aurora A Ki) and at Aurora-1 (Aurora B) were 3.47 nM and 21.2 nM, respectively.

In the case of `CCC(=O)Nc1ccc(Sc2nc(Nc3cc(C)n[nH]3)cc(N3CC[C@H](N4CCCC4)C3)n2)cc1` [Compound 16], the Ki at Aurora-2 (Aurora A) (read-out: Aurora A Ki) was 5.75 nM; on Aurora-1 (Aurora B) it was 97.7 nM.

With `CCC(=O)Nc1ccc(Sc2nc(Nc3cc(C)n[nH]3)cc(N3CCC(N4CCCC4)CC3)n2)cc1` [Compound 7], the Ki amounted to 4.6 nM on Aurora-2 (Aurora A) (read-out: Aurora A Ki) and 50.3 nM at Aurora-1 (Aurora B).

Turning to `Cc1cc(Nc2cc(N3CCC3)nc(Sc3ccc(NC(=O)c4ccccc4C(F)(F)F)cc3)n2)[nH]n1` [Compound 13], the Ki at Aurora-2 (Aurora A) (read-out: Aurora A Ki) is 0.382 nM; at Aurora-1 (Aurora B), 4.47 nM.

In the case of `CCC(=O)Nc1ccc(Sc2nc(Nc3cc(C)n[nH]3)cc(N3CC(C)(N4CCCC4)C3)n2)cc1` [Compound 22], the Ki at Aurora-2 (Aurora A) (read-out: Aurora A Ki) amounted to 0.68 nM; at Aurora-1 (Aurora B), 5 nM.

With `CCC(=O)Nc1ccc(Sc2nc(Nc3cc(C)n[nH]3)cc(N3CC(C)(OC(C)C)C3)n2)cc1` [Compound 28], the values for the Ki on Aurora-2 (Aurora A) (read-out: Aurora A Ki) and at Aurora-1 (Aurora B) were 1.35 nM and 14.5 nM, respectively.

Turning to `CCC(=O)Nc1ccc(Sc2nc(NCCN3CCCCC3)cc(Nc3cc(C)n[nH]3)n2)cc1` [Compound 1], the Ki at Aurora-2 (Aurora A) (read-out: Aurora A Ki) was determined as 8.85 nM; at Aurora-1 (Aurora B) it was 34.5 nM.

With `CCC(=O)Nc1ccc(Sc2nc(Nc3cc(C)n[nH]3)cc(N3CC(O)(C(C)C)C3)n2)cc1` [Compound 30], at Aurora-2 (Aurora A) (read-out: Aurora A Ki), the Ki came out at 1.15 nM.

With `CCC(=O)Nc1ccc(Sc2nc(Nc3cc(C4CC4)n[nH]3)cc(N3CCC(N4CCCC4)CC3)n2)cc1` [Compound 18], the values for the inhibition constant Ki at Aurora-2 (Aurora A) (read-out: Aurora A Ki) and on Aurora-1 (Aurora B) were 2.75 nM and 14.5 nM, respectively.

In the case of `CCC(=O)Nc1ccc(Sc2nc(Nc3cc(C)n[nH]3)cc(N3CCC(O)(C(C)(C)C)CC3)n2)cc1` [Compound 14], the Ki on Aurora-2 (Aurora A) (read-out: Aurora A Ki) was determined as 0.595 nM; on Aurora-1 (Aurora B), 13.5 nM.

For the compound `CCC(=O)Nc1ccc(Sc2nc(Nc3cc(C)n[nH]3)cc(N3CC=C(C(C)(C)C)CC3)n2)cc1` [Compound 23], the Ki worked out at 0.524 nM on Aurora-2 (Aurora A) (read-out: Aurora A Ki) and 612 nM on Aurora-1 (Aurora B).

Regarding `Cc1cc(Nc2cc(N3CC(F)(C4CC4)C3)nc(Sc3ccc(NC(=O)CC(F)(F)F)cc3)n2)[nH]n1` [Compound 35], the Ki stood at 0.354 nM at Aurora-2 (Aurora A) (read-out: Aurora A Ki) and 6.78 nM at Aurora-1 (Aurora B).

Take `COc1cccc(Sc2nc(NC3=NN=C(C)C3)cc(N3CCN(C(C)(C)C)CC3)n2)c1` [Compound 4]: the values for the inhibitory constant (Ki) on Aurora-2 (Aurora A) (read-out: Aurora A Ki) and on Aurora-1 (Aurora B) were 8.5 nM and 145 nM, respectively.

As to `CCC(=O)Nc1ccc(Sc2nc(Nc3cc(C)n[nH]3)cc(N3CC4(C3)OCC4(C)C)n2)cc1` [Compound 26], the Ki at Aurora-2 (Aurora A) (read-out: Aurora A Ki) was 0.735 nM; at Aurora-1 (Aurora B) it was 25 nM.

For `CCC(=O)Nc1ccc(Sc2nc(Nc3cc(C)n[nH]3)cc(N3CCC(O)(C(C)(C)C)C3)n2)cc1` (stereo not drawn) [Compound 27], the Ki on Aurora-2 (Aurora A) (read-out: Aurora A Ki) stood at 0.35 nM; at Aurora-1 (Aurora B) it was 102 nM.

As for `Cc1cc(Nc2cc(N3CCC3)nc(Sc3ccc(NC(=O)CC(F)(F)F)cc3)n2)n[nH]1` [Compound 12], the Ki was 0.707 nM at Aurora-2 (Aurora A) (read-out: Aurora A Ki) and 7.17 nM at Aurora-1 (Aurora B).

As for `Cc1cc(Nc2cc(N3CC(O)(C4CC4)C3)nc(Sc3ccc(NC(=O)C4CC4)cc3)n2)n[nH]1` [Compound 31], the Ki amounted to 0.865 nM on Aurora-2 (Aurora A) (read-out: Aurora A Ki) and 7.05 nM on Aurora-1 (Aurora B).

For the compound `CCC(=O)Nc1ccc(Sc2nc(Nc3cc(C)n[nH]3)cc(N3CCC(O)(c4cc(F)ccc4OC)CC3)n2)cc1` [Compound 24], the results for the Ki at Aurora-2 (Aurora A) (read-out: Aurora A Ki) and on Aurora-1 (Aurora B) were 0.365 nM and 140 nM, respectively.

Regarding `CCC(=O)Nc1ccc(Sc2nc(Nc3cc(C)n[nH]3)cc(N3CCN(C(C)(C)CC)CC3)n2)cc1` [Compound 9], the Ki at Aurora-2 (Aurora A) (read-out: Aurora A Ki) amounted to 2.6 nM; on Aurora-1 (Aurora B), 19.3 nM.

Regarding `CCC(=O)Nc1ccc(Sc2nc(Nc3cc(C)n[nH]3)cc(N3CCC(N(C)C(C)(C)C)CC3)n2)cc1` [Compound 15], the Ki on Aurora-2 (Aurora A) (read-out: Aurora A Ki) was found to be 2.5 nM; at Aurora-1 (Aurora B), 31.5 nM.

For `CCC(=O)Nc1ccc(Sc2nc(Nc3cc(C)n[nH]3)cc(N3CCN(C(C)(C)C)CC3)n2)cc1` [Compound 2], the results for the inhibitory constant (Ki) on Aurora-2 (Aurora A) and at Aurora-1 (Aurora B) were 2.12 nM and 11.2 nM, respectively. Further, in the experiment on tumor, the tumor growth inhibition entry was “very good tumor growth inhibition”.

As to `CCC(=O)Nc1ccc(Sc2nc(Nc3cc(C)n[nH]3)cc(N3CCC(NC(C)(C)C)CC3)n2)cc1` [Compound 11], the Ki turned out to be 7.7 nM on Aurora-2 (Aurora A) (read-out: Aurora A Ki) and 28 nM at Aurora-1 (Aurora B).

`CCC(=O)Nc1ccc(Sc2nc(Nc3cc(C)n[nH]3)cc(N3CCN(C(C)(C)CF)CC3)n2)cc1` [Compound 10]: the Ki at Aurora-2 (Aurora A) (read-out: Aurora A Ki) was determined as 1.98 nM; at Aurora-1 (Aurora B), 22.5 nM.

On to `CCC(=O)Nc1ccc(Sc2nc(Nc3cc(C)n[nH]3)cc(N3CCN(C(C)(C)CO)CC3)n2)cc1` [Compound 8], for which the Ki was found to be 2.77 nM on Aurora-2 (Aurora A) (read-out: Aurora A Ki) and 15.3 nM at Aurora-1 (Aurora B).

Turning to `CCOc1ccc(Sc2nc(Nc3cc(C)n[nH]3)cc(N3CCN(C(C)(C)C)CC3)n2)cc1` [Compound 36], the Ki at Aurora-2 (Aurora A) (read-out: Aurora A Ki) was determined as 5.2 nM; at Aurora-1 (Aurora B), 45.5 nM.

As for `Cc1cc(Nc2cc(N3CCC(N4CCCC4)CC3)nc(Sc3ccc4ccccc4c3)n2)[nH]n1` [Compound 33], the Ki at Aurora-2 (Aurora A) (read-out: Aurora A Ki) was 6.85 nM; at Aurora-1 (Aurora B) it was 64 nM.

The values above are taken from patent US20140141099A1, “DRUG DISCOVERY METHODS” (Vertex Pharmaceuticals Incorporated, priority 2007, published 2014).
